# Test results reported in US6486177B2, “Methods for treatment of cognitive and menopausal disorders with D-threo methylphenidate” (Celgene Corporation, priority 1995, dated 2002).
# Assays:
# [1] = cited from earlier work
# [2] = D-threo vs DL-threo methylphenidate vs placebo in patients in the context of ADD: objective tests and subjective observations; assay type: in vivo, human; conditions: for performance in objective tests: at the 6 hour time point, versus DL-threo racemate or placebo
# Source text: The present inventors have observed that in the context of ADD, D-threo methylphenidate has a longer duration of action than DL-methylphenidate of at least six hours.
# Response by patients with cognitive deficiencies described herein is generally determined by two types of measurements: objective measures of a patient's ability to concentrate and remain focused on a task such as performing a math test; and subjective scores of a patient's performance.
# [3] = children suffering from ADHD; Clin. Pharmacol. Ther. 52: 561-568 (1992); cited from earlier work
Compound,euphoric effect / potential for abuse ([1]; administered intravenously or through inhalation or ingestion),undesirable side effects ([1]; use of the racemate),performance in objective tests [2],pharmacodynamic activity / pharmacological effectiveness [3],persistence of beneficial effects ([2]; D-threo isomer alone versus in combination with the L-threo isomer),"subjective observations: duration of beneficial effects ([2]; same patients, versus DL-threo racemate)"
"COC(=O)C(c1ccccc1)C1CCCCN1 (racemic) [DL-threo racemate, DL-threo-methylphenidate]",produces a euphoric effect,"anorexia, weight loss, insomnia, dizziness and dysphoria",did not perform better after that time period than those who received a placebo,–,–,–
"COC(=O)[C@@H](c1ccccc1)[C@@H]1CCCCN1 (single isomer, unassigned) [L isomer, L-threo-methylphenidate, reference compound]",–,–,–,apparently makes no significant contribution to the pharmacological effectiveness of the drug,–,–
"COC(=O)[C@H](c1ccccc1)[C@H]1CCCCN1 [D-threo methylphenidate, D-threo-methylphenidate]",–,–,performed better in objective tests than patients who received the DL-threo racemate or a placebo,pharmacodynamic activity of DL-threo-methylphenidate resides in the D-threo isomer,persist for a longer period time when the D-threo isomer is administered alone than when it is administered in combination with the L-threo isomer,experienced beneficial effects of the drug for longer times than did those who received the DL-threo racemate
